# Assay results published in patent publication US20260242419A1, “A CYCLIC PEPTIDE FOR TRAPPING INTERLEUKIN-1 BETA” (Merck Sharp & Dohme LLC, priority 2023, published 2026).
# pIC50: −log10 of the molar value. Starred links: 1 amine or outer side, 2 acyl side, 3 side chain; linkers in the order of their positions; H or OH if unused. Non-standard residues stand in square brackets, D forms with d. Residues, ends and D or L forms follow the SMILES beside them. Trp(βS-Me,4-F) = C[C@@H](c1c[nH]c2cccc(F)c12)[C@H](N)C(=O)O; Bip(4'-COOH) = N[C@@H](Cc1ccc(-c2ccc(C(=O)O)cc2)cc1)C(=O)O; Ala(1-bicyclo(1.1.1)pentyl) = N[C@@H](CC12CC(C1)C2)C(=O)O; dPro(4R-Bzl(4-F)) = O=C(O)[C@H]1C[C@@H](Cc2ccc(F)cc2)CN1; X3 = CC(=O)NCCOc1ccc(C[C@H](N[*:1])C(=O)[*:2])cn1; Ala(pyrimidin-5-yl) = N[C@@H](Cc1cncnc1)C(=O)O; Phe(4-COOH) = N[C@@H](Cc1ccc(C(=O)O)cc1)C(=O)O; Pro(cis-4-F) = O=C(O)[C@@H]1C[C@H](F)CN1; AEF = NCCOc1ccc(C[C@H](N)C(=O)O)cc1; 4Pal = N[C@@H](Cc1ccncc1)C(=O)O; Orn = NCCC[C@H](N)C(=O)O; Dab = NCC[C@H](N)C(=O)O; Dap = NC[C@H](N)C(=O)O; Aib = CC(C)(N)C(=O)O
# Molecular target: T1, IL-1β (Homo sapiens, UniProt P01584)
# T1 construct: purchased BioLegend 579404
# Test: IL-6 assay in MRC5 cells: inhibition of IL-1β induced IL-6 secretion (AlphaLISA)
# Type: cell-based
# Conditions: inhibition of IL-1β induced IL-6 secretion in MRC5 cells; read-out: MRC5 IC50
# Method: Procedure for IL-6 Assay in MRC5 Cells
# The inhibition of IL-1β induced IL-6 secretion was evaluated in MRC5 cells. Recombinant human IL-1β (BioLegend 579404) at 2λ EC80 concentration was prepared in seeding medium. EMEM (ATCC 30-2003) with 0.025% BSA (Sigma A9576), 1×penicillin/streptomycin (Gibco 15070-063), 1×NEAA (Gibco 11140-050), 1×GlutaMax (Gibco 35050-061), and 1×sodium pyruvate (Gibco 11360-070), 20 μL of IL-1β was added to a 384-well collagen-coated plate (Corning 354664) and pre-incubated at ambient temperature for 1 hour with 200 nL of compound dispensed using an ECHO 555 liquid handler. Human lung fibroblast MRC5 cells (ATCC CCL-171) were added at a density of 3000 cells/20 μL per well. The cells were prepared by passaging three times in growth medium, EMEM (ATCC 30-2003) with 10% fetal bovine serum (Gibco 16140-071), 1×penicillin/streptomycin (Gibco 15070-063), 1×NEAA (Gibco 11140-050), 1×GlutaMax (Gibco 35050-061), and 1×sodium pyruvate (Gibco 11360-070) in collagen-coated T175 flasks (Greiner 661950) and harvested in seeding medium after 5 minutes of 0.25% trypsin-EDTA (Gibco 25200-056) digestion. The 384-well collagen-coated plate, containing a final volume of 40 μL, was incubated at 37° C., 5% CO2 overnight. 5 μL of the conditioned medium was transferred to a 384-well AlphaLISA plate (PerkinElmer 6005350) for detection of IL-6 using the human AlphaLISA IL-6 kit (PerkinElmer AL223F) as per the manufacturer's protocol. 20 μL of the acceptor bead/biotinylated antibody mix was added to the 384-well AlphaLISA plate and incubated for 1 hour at ambient temperature. The donor bead mix was protected from light and 25 μL was added to the plate and incubated for 30 minutes at ambient temperature. The AlphaLISA plate was read on an EnVision multimode plate reader (Perkin Elmer model 2104) using the AlphaScreen setting (laser exc at 680 nm and emis at […]). Dose response curves and IC50 values were analyzed using a 4-parameter logistic equation in Spotfire software (Tibco, Palo Alto, CA).
# T1 sequence (P01584 117-269): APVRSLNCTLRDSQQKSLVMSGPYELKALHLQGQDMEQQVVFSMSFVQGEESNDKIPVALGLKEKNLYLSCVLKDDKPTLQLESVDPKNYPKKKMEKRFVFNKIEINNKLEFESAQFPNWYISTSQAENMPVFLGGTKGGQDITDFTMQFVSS
row,SMILES,pIC50
1,"C[C@@H](c1c[nH]c2cccc(F)c12)[C@@H]1NC(=O)[C@@H]2C[C@H](F)CN2C(=O)CNC(=O)[C@H](Cc2ccc(C(=O)O)cc2)NC(=O)[C@H](Cc2ccncc2)NC(=O)[C@H](Cc2ccc(-c3ccc(C(=O)O)cc3)cc2)NC(=O)[C@H]2C[C@@H](Cc3ccc(F)cc3)CN2C(=O)CNC(=O)[C@H](CCN)NC(=O)[C@H](CCC(N)=O)NC(=O)[C@H](CO)NC(=O)C(C)(C)NC(=O)[C@H](Cc2c[nH]c3ccccc23)NC(=O)[C@H](CO)NC(=O)C(C)(C)NC1=O [Example 5] (cyclo([Bip(4'-COOH)][4Pal][Phe(4-COOH)]G[Pro(cis-4-F)][Trp(βS-Me,4-F)][Aib]SW[Aib]SQ[Dab]G[dPro(4R-Bzl(4-F))]))",10.41
2,"CC(=O)NCCOc1ccc(C[C@@H]2NC(=O)[C@H]3C[C@@H](Cc4ccc(F)cc4)CN3C(=O)CNC(=O)[C@H](CCN)NC(=O)[C@H](CCC(N)=O)NC(=O)[C@H](Cc3cncnc3)NC(=O)C(C)(C)NC(=O)[C@H](Cc3c[nH]c4ccccc34)NC(=O)[C@H](CCC(=O)O)NC(=O)C(C)(C)NC(=O)[C@H]([C@@H](C)c3c[nH]c4cccc(F)c34)NC(=O)[C@@H]3C[C@H](F)CN3C(=O)CNC(=O)[C@H](Cc3ccc(C(=O)O)cc3)NC(=O)[C@H](Cc3ccncc3)NC2=O)cc1 [Example 10] (cyclo([AEF](Ac)[4Pal][Phe(4-COOH)]G[Pro(cis-4-F)][Trp(βS-Me,4-F)][Aib]EW[Aib][Ala(pyrimidin-5-yl)]Q[Dab]G[dPro(4R-Bzl(4-F))]))",10.57
3,"CC(=O)NCCOc1ccc(C[C@@H]2NC(=O)[C@H]3C[C@@H](Cc4ccc(F)cc4)CN3C(=O)CNC(=O)[C@H](CN)NC(=O)[C@H](CCC(N)=O)NC(=O)[C@H](Cc3cncnc3)NC(=O)C(C)(C)NC(=O)[C@H](Cc3c[nH]c4ccccc34)NC(=O)[C@H](CCC(=O)O)NC(=O)C(C)(C)NC(=O)[C@H]([C@@H](C)c3c[nH]c4cccc(F)c34)NC(=O)[C@@H]3C[C@H](F)CN3C(=O)CNC(=O)[C@H](Cc3ccc(C(=O)O)cc3)NC(=O)[C@H](Cc3ccncc3)NC2=O)cc1 [Example 11] (cyclo([AEF](Ac)[4Pal][Phe(4-COOH)]G[Pro(cis-4-F)][Trp(βS-Me,4-F)][Aib]EW[Aib][Ala(pyrimidin-5-yl)]Q[Dap]G[dPro(4R-Bzl(4-F))]))",10.35
4,"CC(=O)NCCOc1ccc(C[C@@H]2NC(=O)[C@H]3C[C@@H](Cc4ccc(F)cc4)CN3C(=O)CNC(=O)[C@H](CCN)NC(=O)[C@H](CCC(N)=O)NC(=O)[C@H](Cc3cncnc3)NC(=O)C(C)(C)NC(=O)[C@H](Cc3c[nH]c4ccccc34)NC(=O)[C@H](CCC(=O)O)NC(=O)C(C)(C)NC(=O)[C@H]([C@@H](C)c3c[nH]c4cccc(F)c34)NC(=O)[C@@H]3C[C@H](F)CN3C(=O)CNC(=O)[C@H](Cc3ccc(C(=O)O)cc3)NC(=O)[C@H](Cc3ccncc3)NC2=O)cn1 [Example 12] (cyclo([X3][4Pal][Phe(4-COOH)]G[Pro(cis-4-F)][Trp(βS-Me,4-F)][Aib]EW[Aib][Ala(pyrimidin-5-yl)]Q[Dab]G[dPro(4R-Bzl(4-F))]))",10.14
5,"C[C@@H](c1c[nH]c2cccc(F)c12)[C@@H]1NC(=O)[C@@H]2C[C@H](F)CN2C(=O)CNC(=O)[C@H](Cc2ccc(C(=O)O)cc2)NC(=O)[C@H](CC23CC(C2)C3)NC(=O)[C@H](Cc2ccc(-c3ccc(C(=O)O)cc3)cc2)NC(=O)[C@H]2C[C@@H](Cc3ccc(F)cc3)CN2C(=O)CNC(=O)[C@H](CCN)NC(=O)[C@H](CCC(N)=O)NC(=O)[C@H](Cc2cncnc2)NC(=O)C(C)(C)NC(=O)[C@H](Cc2c[nH]c3ccccc23)NC(=O)[C@H](CCC(=O)O)NC(=O)C(C)(C)NC1=O [Example 13] (cyclo([Bip(4'-COOH)][Ala(1-bicyclo(1.1.1)pentyl)][Phe(4-COOH)]G[Pro(cis-4-F)][Trp(βS-Me,4-F)][Aib]EW[Aib][Ala(pyrimidin-5-yl)]Q[Dab]G[dPro(4R-Bzl(4-F))]))",10.66

# The next lines start with the values.
row,pIC50,SMILES
1,10.64,"C[C@@H](c1c[nH]c2cccc(F)c12)[C@@H]1NC(=O)[C@@H]2C[C@H](F)CN2C(=O)CNC(=O)[C@H](Cc2ccc(C(=O)O)cc2)NC(=O)[C@H](Cc2ccncc2)NC(=O)[C@H](Cc2ccc(-c3ccc(C(=O)O)cc3)cc2)NC(=O)[C@H]2C[C@@H](Cc3ccc(F)cc3)CN2C(=O)CNC(=O)[C@H](CCN)NC(=O)[C@H](CCC(N)=O)NC(=O)[C@H](Cc2ccncc2)NC(=O)C(C)(C)NC(=O)[C@H](Cc2c[nH]c3ccccc23)NC(=O)[C@H](CCC(=O)O)NC(=O)C(C)(C)NC1=O [Example 2] (cyclo([Bip(4'-COOH)][4Pal][Phe(4-COOH)]G[Pro(cis-4-F)][Trp(βS-Me,4-F)][Aib]EW[Aib][4Pal]Q[Dab]G[dPro(4R-Bzl(4-F))]))"
2,10.43,"C[C@@H](c1c[nH]c2cccc(F)c12)[C@@H]1NC(=O)[C@@H]2C[C@H](F)CN2C(=O)CNC(=O)[C@H](Cc2ccc(C(=O)O)cc2)NC(=O)[C@H](Cc2ccncc2)NC(=O)[C@H](Cc2ccc(-c3ccc(C(=O)O)cc3)cc2)NC(=O)[C@H]2C[C@@H](Cc3ccc(F)cc3)CN2C(=O)CNC(=O)[C@H](CO)NC(=O)[C@H](CCC(N)=O)NC(=O)[C@H](Cc2cncnc2)NC(=O)C(C)(C)NC(=O)[C@H](Cc2c[nH]c3ccccc23)NC(=O)[C@H](CCC(=O)O)NC(=O)C(C)(C)NC1=O [Example 3] (cyclo([Bip(4'-COOH)][4Pal][Phe(4-COOH)]G[Pro(cis-4-F)][Trp(βS-Me,4-F)][Aib]EW[Aib][Ala(pyrimidin-5-yl)]QSG[dPro(4R-Bzl(4-F))]))"
3,10.51,"C[C@@H](c1c[nH]c2cccc(F)c12)[C@@H]1NC(=O)[C@@H]2C[C@H](F)CN2C(=O)CNC(=O)[C@H](Cc2ccc(C(=O)O)cc2)NC(=O)[C@H](Cc2ccncc2)NC(=O)[C@H](Cc2ccc(-c3ccc(C(=O)O)cc3)cc2)NC(=O)[C@H]2C[C@@H](Cc3ccc(F)cc3)CN2C(=O)CNC(=O)[C@H](CCN)NC(=O)[C@H](CCC(N)=O)NC(=O)[C@H](Cc2cncnc2)NC(=O)C(C)(C)NC(=O)[C@H](Cc2c[nH]c3ccccc23)NC(=O)[C@H](CCC(=O)O)NC(=O)C(C)(C)NC1=O [Example 4] (cyclo([Bip(4'-COOH)][4Pal][Phe(4-COOH)]G[Pro(cis-4-F)][Trp(βS-Me,4-F)][Aib]EW[Aib][Ala(pyrimidin-5-yl)]Q[Dab]G[dPro(4R-Bzl(4-F))]))"
4,10.59,"C[C@@H](c1c[nH]c2cccc(F)c12)[C@@H]1NC(=O)[C@@H]2C[C@H](F)CN2C(=O)CNC(=O)[C@H](Cc2ccc(C(=O)O)cc2)NC(=O)[C@H](Cc2ccncc2)NC(=O)[C@H](Cc2ccc(-c3ccc(C(=O)O)cc3)cc2)NC(=O)[C@H]2C[C@@H](Cc3ccc(F)cc3)CN2C(=O)CNC(=O)[C@H](CN)NC(=O)[C@H](CCC(N)=O)NC(=O)[C@H](Cc2cncnc2)NC(=O)C(C)(C)NC(=O)[C@H](Cc2c[nH]c3ccccc23)NC(=O)[C@H](CCC(=O)O)NC(=O)C(C)(C)NC1=O [Example 7] (cyclo([Bip(4'-COOH)][4Pal][Phe(4-COOH)]G[Pro(cis-4-F)][Trp(βS-Me,4-F)][Aib]EW[Aib][Ala(pyrimidin-5-yl)]Q[Dap]G[dPro(4R-Bzl(4-F))]))"
5,10.59,"C[C@@H](c1c[nH]c2cccc(F)c12)[C@@H]1NC(=O)[C@@H]2C[C@H](F)CN2C(=O)CNC(=O)[C@H](Cc2ccc(C(=O)O)cc2)NC(=O)[C@H](Cc2ccncc2)NC(=O)[C@H](Cc2ccc(-c3ccc(C(=O)O)cc3)cc2)NC(=O)[C@H]2C[C@@H](Cc3ccc(F)cc3)CN2C(=O)CNC(=O)[C@H](CCCN)NC(=O)[C@H](CCC(N)=O)NC(=O)[C@H](Cc2cncnc2)NC(=O)C(C)(C)NC(=O)[C@H](Cc2c[nH]c3ccccc23)NC(=O)[C@H](CCC(=O)O)NC(=O)C(C)(C)NC1=O [Example 8] (cyclo([Bip(4'-COOH)][4Pal][Phe(4-COOH)]G[Pro(cis-4-F)][Trp(βS-Me,4-F)][Aib]EW[Aib][Ala(pyrimidin-5-yl)]Q[Orn]G[dPro(4R-Bzl(4-F))]))"
6,10.55,"C[C@@H](c1c[nH]c2cccc(F)c12)[C@@H]1NC(=O)[C@@H]2C[C@H](F)CN2C(=O)CNC(=O)[C@H](Cc2ccc(C(=O)O)cc2)NC(=O)[C@H](Cc2ccncc2)NC(=O)[C@H](Cc2ccc(-c3ccc(C(=O)O)cc3)cc2)NC(=O)[C@H]2C[C@@H](Cc3ccc(F)cc3)CN2C(=O)CNC(=O)[C@H](CCCCN)NC(=O)[C@H](CCC(N)=O)NC(=O)[C@H](Cc2cncnc2)NC(=O)C(C)(C)NC(=O)[C@H](Cc2c[nH]c3ccccc23)NC(=O)[C@H](CCC(=O)O)NC(=O)C(C)(C)NC1=O [Example 9] (cyclo([Bip(4'-COOH)][4Pal][Phe(4-COOH)]G[Pro(cis-4-F)][Trp(βS-Me,4-F)][Aib]EW[Aib][Ala(pyrimidin-5-yl)]QKG[dPro(4R-Bzl(4-F))]))"
